In patent US20020022594A1, “Bax fragment induced tumor cell death” (priority 2000, published 2002):
Blank lines part the entries; values can stand above or below the compound they belong to. Where a SMILES comes first, the peptide text is derived from it. [ ]: non-standard residue; d: D form. The star is where a group is joined. Nle = CCCC[C@H](N)C(=O)O; Cbz = O=C(OCc1ccccc1)*; CH2F = FC*

Experiments:
[1] = test system: cell-free Bax cleavage activity (calpain-like) in whole cell extract of VP-16-treated Jurkat T cells; test: Cell-free Bax cleavage assay with protease inhibitors; format: biochemical, human; settings: 35S-labeled Bax, 2 hours
Method: Briefly, the ^35S-labeled Bax protein (1 μl) was incubated with 100 μg of a whole cell extract or a cytosol or mitochondrial fraction in an assay buffer (10 mM HEPES, pH 7.4, 5 mM MgCl2, 5 mM CaCl2, and 1 mM DTT), supplemented with ATP-regenerating system (0.1 mg/ml creatine kinase, 100 mM creatine phosphate, and 5 mM ATP) for 2 hours at 37° C. […] For inhibitor studies, 10 μM of calpain inhibitor-1 (LLnL), 10 μM of calpain inhibitor-2 (LLM), 20 μM of pan-caspase inhibitor Z-VAD-FMK, 20 μM of caspase-3 inhibitor Ac-DEVD-CMK, or 20 μM of the specific proteasome inhibitor castolactacystin, lactone was added in the Bax cleavage system.

Jurkat T cells [2] = test: Cell-free Bax cleavage activity in whole cell lysates of drug-treated Jurkat T cells; settings: VP-16 50 μM; absent in untreated cells
[3] = test system: Bcl-2 cells (Jurkat T cells overexpressing Bcl-2); test: VP-16 treatment of Bcl-2 overexpressing Jurkat T cells; settings: VP-16 50 μM
Jurkat T cells [4] = settings: VP-16 50 μM
[5] = test system: Neo cells (Jurkat T cells transfected with vector alone); test: VP-16 treatment of Neo (vector) Jurkat T cells; format: cell-based, human; settings: VP-16 50 μM
Method: (§1) MCF-7, Jurkat T. Neo and Bcl-2 cells were cultured in RPMI 1640 supplemented with 10% fetal calf serum, 100 units/ml of penicillin and 100 μg/ml of streptomycin at 37° C. in a humidified atmosphere consisting of 5% CO2 and 95% air. […] For the experiment using a specific calpain inhibitor, Jurkat T cells were pretreated for 1 hour with calpeptin at 10 μM, followed by a co-incubation with 50 μM of VP-16, as indicated in figure legends.
(§2) The resulting supernatant was then centrifuged at 14,000×g for 30 minutes, followed by collection of both the supernatant and pellet fractions. […] The supernatant was further centrifuged at 600,000×g for 30 minutes and the resulting supernatant was collected as the cytosol fraction. To prepare a whole cell extract, cells were lysed in the lysis buffer, and the lysate was centrifuged at 14,000×g for 30 minutes.
Briefly, the ^35S-labeled Bax protein (1 μl) was incubated with 100 μg of a whole cell extract or a cytosol or mitochondrial fraction in an assay buffer (10 mM HEPES, pH 7.4, 5 mM MgCl2, 5 mM CaCl2, and 1 mM DTT), supplemented with ATP-regenerating system (0.1 mg/ml creatine kinase, 100 mM creatine phosphate, and 5 mM ATP) for 2 hours at 37° C. […]

Jurkat T cells [6] = test: Cytochrome c release from mitochondria to cytosol in drug-treated Jurkat T cells; format: cell-based, human
Method: as §2
(§3) The primary antibodies used were: monoclonal B9anti-Bax antibody (Santa Cruz Biotechnology, Santa Cruz, Calif.) at 1:500, monoclonal 6A7 anti-Bax antibody (Pharmingen, San Diego, Calif.) at 1:500, monoclonal anti-Bcl-2 antibody (Dako, Glostrup, Denmark) at 1:500, monoclonal anti-caspase-3 antibody (Onocogene, Cambridge, Mass.) at 1:200, monoclonal anti-cytochrome C antibody (Pharmingen) at 1:500, polyclonal anti-PARP antibody (Boehringer Manheim, Indianapolis, Ind.) at 1:3000, monoclonal anti-cytochrome oxidase unit 11 (COX) antibody (Molecular Probes, Eugene, Oreg.) at 1:200, and monoclonal anti-calpain 30 kDa subunit antibody (Chemicon, Temecula, Calif.) at 1:500.

Jurkat T cells [7] = test: Apoptotic execution in drug-treated Jurkat T cells (caspase-3 processing, PARP cleavage, DNA fragmentation, TUNEL)
Jurkat T cells [8] = test: Calpeptin pre- and co-treatment of VP-16-treated Jurkat T cells; format: cell-based, human
Method: as §1, §2, §3

Jurkat T cells [9] = test: Transient transfection of Bax/p18 or Bax/p21 cDNA in Jurkat T cells; format: cell-based, human; settings: 48 hours after cDNA transfection
Method: as §2
(§4) Bax/p18 cDNA was amplified by PCR with human Bax-α-cDNA as template using primer 5′-[…] (forward) and 5′-[…] (reverse) (Wood et al., 1998) and cloned into pcDNA3.0 between Hind III and Xho I restriction enzyme sites. Bax/p18 cDNA was verified by sequencing. MCF-7, Jurkat T. Neo and BcI-2 cells were transfected with pcDNA3.0 vector alone or pcDNA3.0 vector containing Bax/p18 or Bax/p21 cDNA using GenePORTER Transfection Reagent (Gene Therapy Systems, San Diego, Calif.) according to the manufacture's instructions. Briefly, 3 μg of plasmid DNA in 500 μl of RPMI 1640 medium was incubated for 30 minutes at room temperature with 25 μl of GenePORTER reagent in 500 μl of RPMI 1640 medium. The resultant GenePORTER-plasmid DNA mixture (1 ml) was then added into cells 2×10^6 cells in a well of a 6-well plate, followed by 5 hours incubation at 37° C. in a humidified atmosphere consisting of 5% CO2. After that, 1 ml of RPMI 1640 medium containing 20% fetal calf serum was added and the cells were further incubated for additional 43 hours before harvest. […]

Bcl-2 = biological target: T1, Bcl-2 (Homo sapiens, UniProt P10415); test: Immunoprecipitation-Western blot assay of interaction with Bcl-2 in mitochondrial fraction; format: binding; settings: mitochondrial fraction of Jurkat T cells untreated or treated with VP-16 for 12 hours
T1 construct: the mitochondria fraction (500 μg of protein) from VP-16-treated or untreated Jurkat T cells; endogenous in cells; host or cells: Jurkat T cells, untreated or treated with VP-16 for 12 hours; mitochondrial membrane-enriched fraction
Method: Immunoprecipitation assay was performed as described previously (Fattman et al., 1997). Briefly, the mitochondria fraction (500 μg of protein) from VP-16-treated or untreated Jurkat T cells was incubated with a 5 μg of a monoclonal anti-human Bcl-2 antibody overnight at 4° C. The protein-antibody complex was then precipitated by incubating with 2 μl of Protein G plus Protein A agarose (Oncogene) for 1 hour at 4° C. and centrifuging at 2000×g at 4° C. for 1 hour. Both the precipitate and supernatant fractions were then analyzed by immunoblotting using the monoclonal B9 anti-human Bax antibody.

[10] = test system: human breast cancer MCF-7; test: Transient transfection of Bax/p18 or Bax/p21 cDNA in MCF-7 cells; format: cell-based
Method: as §2
as §4, with “CO2.” for “CO2. After that, 1 ml of RPMI 1640 medium containing 20% fetal calf serum was added and the cells were further incubated for additional 43 hours before harvest.”

[11] = calpeptin 10 μM pre- and co-treatment, VP-16 50 μM

T1 sequence (P10415 whole entry): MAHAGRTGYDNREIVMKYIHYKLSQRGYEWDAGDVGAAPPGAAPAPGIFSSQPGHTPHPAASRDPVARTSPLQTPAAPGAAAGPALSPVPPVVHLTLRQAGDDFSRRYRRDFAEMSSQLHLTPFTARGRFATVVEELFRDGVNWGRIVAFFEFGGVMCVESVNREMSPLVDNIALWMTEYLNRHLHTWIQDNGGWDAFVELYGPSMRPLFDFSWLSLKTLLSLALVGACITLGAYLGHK

Compound: CC(=O)N[C@@H](CC(=O)O)C(=O)N[C@@H](CCC(=O)O)C(=O)N[C@H](C(=O)N[C@@H](CC(=O)O)C(=O)CCl)C(C)C [Ac-DEVD-CMK]
inhibition of cell-free Bax cleavage activity ([1]; inhibitor 20 μM): partially inhibited

Compound: CSCC[C@@H](C=O)NC(=O)[C@H](CC(C)C)NC(=O)[C@H](CC(C)C)NC(C)=O [LLM, calpain inhibitor KK] (Ac-Leu-Leu-Met-aldehyde)
inhibition of cell-free Bax cleavage activity ([1]; inhibitor 10 μM): completely inhibited

Compound: CCCC[C@@H](C=O)NC(=O)[C@H](CC(C)C)NC(=O)[C@H](CC(C)C)NC(C)=O [LLnL, calpain inhibitor I] (Ac-Leu-Leu-[Nle]-aldehyde)
inhibition of cell-free Bax cleavage activity ([1]; inhibitor 10 μM): completely inhibited

Compound: COc1cc([C@@H]2c3cc4c(cc3[C@@H](O[C@@H]3O[C@@H]5CO[C@@H](C)O[C@H]5[C@H](O)[C@H]3O)[C@H]3COC(=O)[C@H]23)OCO4)cc(OC)c1O [VP-16, Etoposide]
treatment time at which cell-free Bax cleavage activity is present in cell extract (Jurkat T cells [2]): ≥ 3 h | delay of appearance of Bax/p18 and p36 bands versus Neo cells [3]: 9 h | delay of detection of cell-free Bax cleavage activity versus Neo cells [3]: 9 h | time after which caspase-3 processing and PARP cleavage were observed [3]: 24 h | time after which release of cytochrome c was detected [3]: 12 h | time of appearance of Bax/p18 and p36 bands [3]: 12 h | time of autolysis of calpain 30 kDa subunit (delayed from 3 hours in Neo cells) [3]: 12 h | earliest time of Bax cleavage (Bax/p18 and p36 bands, B9 antibody) (Jurkat T cells [4]): 3 h | time at which autolysis of the calpain 30 kDa subunit began (Jurkat T cells [4]): 3 h | earliest time of appearance of Bax/p18 and p36 bands [5]: 3 h | treatment time at which apoptosis was induced (caspase-3 processing, PARP cleavage) [5]: ≥ 6 h | treatment time after which cytosolic cytochrome c appeared (Jurkat T cells [6]; VP-16 50 μM): 3 h | time at which apoptotic execution phase began (caspase-3 processing/activation, PARP cleavage, DNA fragmentation) (Jurkat T cells [7]; VP-16 50 μM): 6 h

Compound: COC(=O)C[C@H](NC(=O)[C@H](C)NC(=O)[C@@H](NC(=O)OCc1ccccc1)C(C)C)C(=O)CF [Z-VAD-FMK] (Cbz-Val-Ala-Asp(OMe)-CH2F)
inhibition of cell-free Bax cleavage activity ([1]; inhibitor 20 μM): partially inhibited

Compound: CCCC[C@@H](C=O)NC(=O)[C@H](CC(C)C)NC(=O)OCc1ccccc1 [calpeptin, Calpeptin]
effect on VP-16-induced Bax cleavage (Jurkat T cells [8]; [11]): delay | effect on VP-16-induced release of cytochrome c from mitochondria to the cytosol (Jurkat T cells [8]; [11]): delay | time of VP-16-induced caspase-3 processing and PARP cleavage with calpeptin (delayed from 6 hours) (Jurkat T cells [8]; [11]): 24 h | time of autolysis of the 30 kDa small subunit of calpain with calpeptin (delayed from 3 hours) (Jurkat T cells [8]; [11]): 24 h | apoptosis induction by the inhibitor itself (Jurkat T cells [8]; calpeptin 10 μM, 1 hour pretreatment, no VP-16): did not induce apoptosis | inhibition of PARP cleavage at 24 hours (Jurkat T cells [8]; fresh calpeptin added at 18 hours after VP-16 treatment): complete inhibition

Compound: CN[C@@H]1C[C@H]2O[C@@](C)([C@@H]1OC)n1c3ccccc3c3c4c(c5c6ccccc6n2c5c31)C(=O)NC4 [staurosporin]
treatment time after which cytosolic cytochrome c appeared (Jurkat T cells [6]; staurosporin 1 μM): 3 h | time at which caspase-3 processing/activation, PARP cleavage and DNA fragmentation occurred (Jurkat T cells [7]; staurosporin 1 μM, up to 24 hours): ≥ 6 h

interaction with Bcl-2 (co-immunoprecipitation by anti-Bcl-2 antibody) (Bcl-2): did not interact
Compound: Bax/p18: calpain-cleaved 18 kDa Bax fragment; the cloned Bax/p18 consists of amino acids 33-192 of Bax, expressed from transfected cDNA
caspase-3 processing/activation, PARP cleavage and DNA fragmentation (Jurkat T cells [9]): detected | release of cytochrome c (Jurkat T cells [9]): induced | cytochrome c-associated apoptotic events [10]: release of cytochrome c, cleavage of PARP and fragmentation of DNA

interaction with Bcl-2 (co-immunoprecipitation by anti-Bcl-2 antibody) (Bcl-2): co-immunoprecipitated
Compound: Bax/p21: full-length Bax protein, endogenous or expressed from transfected Bax-α cDNA
release of cytochrome c (Jurkat T cells [9]): not observed | cytochrome c-associated apoptotic events [10]: did not induce
